Where two headings read alike, the source gives them in different places.
Tests used:
K-Ras G12S = target: T1, K-Ras G12S (Homo sapiens, UniProt P01116, G12S); experiment: HTRF assay of the K-Ras / SOS1 interaction; assay type: biochemical; details: IC50 (against K-Ras G12D) to IC50 (against K-Ras G12S)
T1 construct: made in house; host or cells: E. coli (e.g., BL21 (DE3))
Method in brief: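 GST-K-Ras G12S with anti-GST-Eu donor and His-hSOS1 with anti-6His-XL665 acceptor in ~5 mM HEPES pH 7.4, ~150 mM NaCl, 1 mM DTT, 0.05% BSA, 0.0025% Igepal. Read after ~10 min or longer; IC50 from 665/620 nm ratio, duplicates at 10 µM down to 0.01 µM.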

[1] = target: T2, KRAS protein (His-tagged GDP-loaded G12S 1-169) (Homo sapiens, UniProt P01116, G12S); experiment: Covalent modification of KRAS protein, intact-protein LC-MS; assay type: binding; details: 24hrs at room temperature, KRAS protein ~2 µM
T2 construct: His-tagged GDP-loaded G12S 1-169
Description: Test compounds are prepared as 10 mM stock solutions in DMSO (Fisher cat#BP231-100). KRAS protein (His-tagged GDP-loaded wildtype 1-169, His-tagged GDP-loaded G12S 1-169 or His-tagged GDP-loaded G12D 1-169) is diluted to ~2 µM in appropriate buffer (e.g., a Hepes buffer at physiological conditions). For testing KRAS modification, compounds are diluted to 50X final test concentration in DMSO in 96-well storage plates. 2 µl of the diluted 50X compounds are added to appropriate wells in the PCR plate (Fisher cat#AB-0800). […] of the stock protein solution is added to each well of the 96-well PCR plate. Reactions are mixed carefully. The plate is sealed well with aluminum plate seal, and stored in drawer at room temperature for 24hrs. 5 µl of 2% formic acid (Fisher cat#A1 17-50) in MilliQ H2O is then added to each well followed by mixing with a pipette. The plate is then resealed with aluminum seal and stored until mass spectrometry analysis.
The extent of covalent modification of KRAS proteins was determined by liquid chromatography electrospray mass spectrometry analysis of the intact proteins on a Thermo Q-Exactive Plus mass spectrometer. 20 µl of sample was injected onto a bioZen 3.6 µm Intact C4 column (Phenomenex cat#00B-4767-AN) placed in a column oven set to 40°C and separated using a suitable LC gradient from -20% to ~60% solvent B. Solvent A was 0.1% formic acid and solvent B was 0.1% formic acid in acetonitrile. HESI source settings were set to 40, 5 and 1 for the sheath, auxiliary and sweep gas flow, respectively. The spray voltage was 4 kV, and the capillary temperature was 320°C. S-lens RF level was 50 and auxiliary gas heater temperature was set to 200°C. The mass spectrometry was acquired using a scan range from 650 to 1750 m/z using positive polarity at a mass resolution of 70,000, AGC target of 1e6 ions and maximum injection time of 250ms. The recorded protein mass spectrum was deconvoluted from the raw data file using Protein Deconvolution v4.0 (Thermo). The protein mass and adduct masses were exported with their peak intensities. The peak intensities for the unmodified and modified protein were used to calculate the percent covalent modification of the KRAS protein based on the following equation: %KRAS protein modification = ((KRAS-compound) / (KRAS) + (KRAS-Compound)) *100.

GP2D cells = experiment: Cell proliferation assay (CellTiter-Glo), K-Ras G12D cells; assay type: cell-based; details: read-out: Inhibition of GP2D Cells (IC50)
Method in brief: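 GP2D (K-Ras G12D) cells seeded in DMEM with 2 mM glutamine and 10% FBS, then dosed next day with a dilution series (e.g., 9-point 3-fold). Viability read by CellTiter-Glo luminescence after about 5 days. IC50 from four-parameter fit.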

| Compound | Ratio of IC50 KRAS G12D vs. IC50 KRAS G12S (K-Ras G12S) | % G12S Modification at 24 hr. [1] | IC50 (GP2D cells; GP2D cells (K-Ras G12D)) | IC50 (GP2D cells; GP2d) |
| --- | --- | --- | --- | --- |
| Nc1nc2c(-c3c(Cl)cc4c(N5CCC6(CC5)CN(C(=O)n5cncn5)CCO6)nc(OC[C@@]56CCCN5C[C@H](F)C6)nc4c3F)ccc(F)c2s1 [Compound A225, (9-(7-(2-amino-7-fluorobenzo[d]thiazol-4-yl)-6-chloro-8-fluoro-2-(((2R,7aS)-2-fluorotetrahydro-1H-pyrrolizin-7a(5H)-yl)methoxy)quinazolin-4-yl)-1-oxa-4,9-diazaspiro [5.5]undecan-4-yl)(1H-1,2,4-triazol-1-yl)methanone] | A (A: indicates that the ratio of IC50 against KrasG12D vs. IC50 against KrasG12S is 1-fold or greater) | ++ (++ indicates between about 1%- 20% labelling) |  |  |
| Nc1nc2c(-c3c(Cl)cc4c(NCCN5CCN(C(=O)n6cncn6)CC5)nc(OC[C@@]56CCCN5C[C@H](F)C6)nc4c3F)ccc(F)c2s1 [Compound A156, (4-(2-((7-(2-amino-7-fluorobenzo[d]thiazol-4-yl)-6-chloro-8-fluoro-2-(((2R,7aS)-2-fluorotetrahydro-1H-pyrrolizin-7a(5H)-yl)methoxy)quinazolin-4-yl)amino)ethyl)piperazin-1-yl)(1H-1,2,4-triazol-1-yl)methanone] | A (A: indicates that the ratio of IC50 against KrasG12D vs. IC50 against KrasG12S is 1-fold or greater) |  | 1000 to 10000 nM |  |
| N#Cc1cnn(C(=O)N2CC3CCC(C2)N3c2nc(OC[C@@]34CCCN3C[C@H](F)C4)nc3c(F)c(-c4ccc(F)c5sc(N)nc45)c(Cl)cc23)c1 [Compound A112, 1-(8-(7-(2-amino-7-fluorobenzo[d]thiazol-4-yl)-6-chloro-8-fluoro-2-(((2R,7aS)-2-fluorotetrahydro-1H-pyrrolizin-7a(5H)-yl)methoxy)quinazolin-4-yl)-3,8-diazabicyclo[3.2. 1]octane-3-carbonyl)-1H-pyrazole-4-carbonitrile] | A (A: indicates that the ratio of IC50 against KrasG12D vs. IC50 against KrasG12S is 1-fold or greater) |  |  | ≤ 1000 nM |
| N#Cc1cccn1C(=O)N1C2CCC1CN(c1nc(OC[C@@]34CCCN3C[C@H](F)C4)nc3c(F)c(-c4ccc(F)c5sc(N)nc45)c(Cl)cc13)C2 [Compound A121, 1-(3-(7-(2-amino-7-fluorobenzo[d]thiazol-4-yl)-6-chloro-8-fluoro-2-(((2R,7aS)-2-fluorotetrahydro-1H-pyrrolizin-7a(5H)-yl)methoxy)quinazolin-4-yl)-3,8-diazabicyclo[3.2. 1]octane-8-carbonyl)-1H-pyrrole-2-carbonitrile] | A (A: indicates that the ratio of IC50 against KrasG12D vs. IC50 against KrasG12S is 1-fold or greater) |  |  | ≤ 1000 nM |
| Nc1nc2c(-c3c(Cl)cc4c(N5CCC56CCN(C(=O)n5cncn5)CC6)nc(OC[C@@]56CCCN5C[C@H](F)C6)nc4c3F)ccc(F)c2s1 [Compound A288, (1-(7-(2-amino-7-fluorobenzo[d]thiazol-4-yl)-6-chloro-8-fluoro-2-(((2R,7aS)-2-fluorotetrahydro-1H-pyrrolizin-7a(5H)-yl)methoxy)quinazolin-4-yl)-1,7-diazaspiro[3.5]nonan-7-yl)(1H-1,2,4-triazol-1-yl)methanone] | A (A: indicates that the ratio of IC50 against KrasG12D vs. IC50 against KrasG12S is 1-fold or greater) |  | 1000 to 10000 nM |  |
| Nc1nc2c(-c3c(Cl)cc4c(N5CCCC56CCCN(C(=O)n5cncn5)C6)nc(OC[C@@]56CCCN5C[C@H](F)C6)nc4c3F)ccc(F)c2s1 (stereo partly drawn) [Compound A144, (1-(7-(2-amino-7-fluorobenzo[d]thiazol-4-yl)-6-chloro-8-fluoro-2-(((2R,7aS)-2-fluorotetrahydro-1H-pyrrolizin-7a(5H)-yl)methoxy)quinazolin-4-yl)-1,7-diazaspiro[4.5]decan-7-yl)(1H-1,2,4-triazol-1-yl)methanone] | A (A: indicates that the ratio of IC50 against KrasG12D vs. IC50 against KrasG12S is 1-fold or greater) |  | 1000 to 10000 nM |  |
| Cc1cnn(C(=O)N2CCN(c3nc(OC[C@@]45CCCN4C[C@H](F)C5)nc4c(F)c(-c5ccc(F)c6sc(N)nc56)c(Cl)cc34)CC2)c1 [Compound A149, (4-(7-(2-amino-7-fluorobenzo[d]thiazol-4-yl)-6-chloro-8-fluoro-2-(((2R,7aS)-2-fluorotetrahydro-1H-pyrrolizin-7a(5H)-yl)methoxy)quinazolin-4-yl)piperazin-1-yl)(4-methyl-1H-pyrazol-1-yl)methanone] | A (A: indicates that the ratio of IC50 against KrasG12D vs. IC50 against KrasG12S is 1-fold or greater) |  | 1000 to 10000 nM |  |
| N#Cc1nccn1C(=O)N1CC2CCC(C1)N2c1nc(OC[C@@]23CCCN2C[C@H](F)C3)nc2c(F)c(-c3ccc(F)c4sc(N)nc34)c(Cl)cc12 [Compound A238, 1-(8-(7-(2-amino-7-fluorobenzo[d]thiazol-4-yl)-6-chloro-8-fluoro-2-(((2R,7aS)-2-fluorotetrahydro-1H-pyrrolizin-7a(5H)-yl)methoxy)quinazolm-4-yl)-3,8-diazabicyclo[3.2. 1]octane-3-carbonyl)-1H-imidazole-2-carbonitrile] | A (A: indicates that the ratio of IC50 against KrasG12D vs. IC50 against KrasG12S is 1-fold or greater) |  | ≤ 1000 nM |  |
| Nc1nc2c(-c3c(Cl)cc4c(NC5CCN(C(=O)n6ccnc6)CC5)nc(OC[C@@]56CCCN5C[C@H](F)C6)nc4c3F)ccc(F)c2s1 [Compound A117, (4-((7-(2-amino-7-fluorobenzo[d]thiazol-4-yl)-6-chloro-8-fluoro-2-(((2R,7aS)-2-fluorotetrahydro-1H-pyrrolizin-7a(5H)-yl)methoxy)quinazolin-4-yl)amino)piperidin-1-yl)(1H-imidazol-1-yl)methanone] | A (A: indicates that the ratio of IC50 against KrasG12D vs. IC50 against KrasG12S is 1-fold or greater) |  | 1000 to 10000 nM |  |
| Nc1nc2c(-c3c(Cl)cc4c(NC5CCN(C(=O)n6cc(F)cn6)CC5)nc(OC[C@@]56CCCN5C[C@H](F)C6)nc4c3F)ccc(F)c2s1 [Compound A291, (4-((7-(2-amino-7-fluorobenzo[d]thiazol-4-yl)-6-chloro-8-fluoro-2-(((2R,7aS)-2-fluorotetrahydro-1H-pyrrolizin-7a(5H)-yl)methoxy)quinazolin-4-yl)amino)piperidin-1-yl)(4-fluoro-1H-pyrazol-1-yl)methanone] | A (A: indicates that the ratio of IC50 against KrasG12D vs. IC50 against KrasG12S is 1-fold or greater) |  | 1000 to 10000 nM |  |
| Nc1nc2c(-c3c(Cl)cc4c(N5CC6CCC(C5)N6C(=O)n5cccn5)nc(OC[C@@]56CCCN5C[C@H](F)C6)nc4c3F)ccc(F)c2s1 [Compound A130, (3-(7-(2-amino-7-fluorobenzo[d]thiazol-4-yl)-6-chloro-8-fluoro-2-(((2R,7aS)-2-fluorotetrahydro-1H-pyrrolizin-7a(5H)-yl)methoxy)quinazolin-4-yl)-3,8-diazabicyclo[3.2.1]octan-8-yl)(1H-pyrazol-1-yl)methanone] | A (A: indicates that the ratio of IC50 against KrasG12D vs. IC50 against KrasG12S is 1-fold or greater) |  |  | 1000 to 10000 nM |
| Nc1nc2c(-c3c(Cl)cc4c(N5CC6(CN(C(=O)n7cncn7)C6)C5)nc(OC[C@@]56CCCN5C[C@H](F)C6)nc4c3F)ccc(F)c2s1 [Compound A264, (6-(7-(2-amino-7-fluorobenzo[d]thiazol-4-yl)-6-chloro-8-fluoro-2-(((2R,7aS)-2-fluorotetrahydro-1H-pyrrolizin-7a(5H)-yl)methoxy)quinazolm-4-yl)-2,6-diazaspiro[3.3]heptan-2-yl)(1H-1,2,4-triazol-1-yl)methanone] | A (A: indicates that the ratio of IC50 against KrasG12D vs. IC50 against KrasG12S is 1-fold or greater) |  | 1000 to 10000 nM |  |
